Laboratory results as given in publication PMC4189701 (Drug Design, Development and Therapy, 2014).
Several values for one entry are separate records, joined by “and”; a condition that tells them apart may be missing. Equal entries are not always repeated. Entries after “also recorded” stand apart in the source; their conditions may differ. Where two headings read alike, the source gives them in different places.

Experiments:
[1] = system: K103N; settings: major efavirenz-resistant mutation; ref unpublished data; cited from earlier work
[2] = Tolerability over the whole study; format: in vivo, human
[3] = system: CYP3A; assay: CYP3A enzyme activity; format: in vitro ADME; settings: primary human hepatocytes
[4] = system: laboratory strains and clinical HIV-1 isolates; settings: preclinical; ref unpublished data; cited from earlier work
[5] = system: cytochrome P450 (CYP)-3A4; settings: human hepatocytes; ref unpublished data; cited from earlier work
[6] = Multiple-dose; format: in vivo, human; settings: for steady state attained: RM-ANOVA of predose concentrations; for Accumulation index: AUC144–168h/AUC0–24h; for Accumulation index / AUCτ,ss/dose / CL/F / Cmax,ss/dose / fe: mean ± SD; for fe: unchanged in urine
[7] = Single-dose pharmacokinetics in healthy subjects; format: in vivo, human; settings: for AUC(0-inf) / AUC(0-t) / Cmax / Tmax / half-life: human, plasma, oral; for AUC∞/dose / Cmax/dose / fe / CL/F: mean ± SD; for fe: unchanged in urine
[8] = Pharmacokinetics over single- and multiple-dose studies together; format: in vivo, human
[9] = system: CYP3A4 messenger ribonucleic acid (mRNA); assay: CYP3A4 mRNA content in primary human hepatocytes; format: in vitro ADME; settings: summary in words
[10] = system: CYP3A4 mRNA; assay: CYP3A4 mRNA content in primary human hepatocytes; format: in vitro ADME; settings: human
[11] = Tolerability; format: in vivo, human
[12] = mice and dogs; preclinical studies; cited from earlier work
[13] = Tolerability; format: in vivo, human; settings: single dose
[14] = cited from earlier work; for dose proportionality of Cmax or AUC: healthy subjects
[15] = 75–600 mg, single or multiple doses

CCn1c(C(=O)c2cc(C)cc(C#N)c2)c(C(C)C)c(=O)[nH]c1=O [KM-023, 3-[3-ethyl-5-isopropyl-2,6-dioxo-1,2,3,6-tetrahydro-pyrimidine-4-carbonyl]-5-methyl benzonitrile]
activity against K103N [1]: showed activity against K103N | epistaxis, occurrences ([2]; both studies, all deemed drug-related): seven | changes from baseline in clinical laboratory test results, vital signs, electrocardiography, computerized impedance cardiography, or physical examinations ([2]; single or multiple doses): no clinically meaningful changes from baseline | serious AEs ([2]; single or multiple doses 75–600 mg): No serious AEs occurred | tolerability ([2]; single or multiple doses 75–600 mg, healthy subjects): generally well tolerated without serious adverse events; also recorded: well tolerated | fold induction at 0.3 µM ([3]; human, probe testosterone): 1.9 | fold induction at 3 µM ([3]; human, probe testosterone): 5 | fold induction at 30 µM ([3]; human, probe testosterone): 8.8 | CYP3A enzyme activation ([3]; summary in words): exhibited a potential for CYP3A enzyme activation | antiviral activity [4]: low-nanomolar range | CYP3A4 induction [5]: moderately induced | steady state attained ([6]; 75 mg once daily): > 4 days | accumulation after multiple doses ([6]; 600 mg dose group): 0.6 fold | steady state attained ([6]; 150–600 mg once daily): > 6 days | Accumulation index ([6]; multiple doses 75 mg): 1.1±0.2 | AUCτ,ss/dose ([6]; multiple doses 75 mg): 49.3 ± 13.4 ng·mL·h/mg | CL/F ([6]; multiple doses 75 mg): 21.5 ± 5.4 L/h | Cmax,ss/dose ([6]; multiple doses 75 mg): 5.1 ± 1.7 ng/mL/mg | fe ([6]; multiple doses 75 mg): 0.52±0.40% | Accumulation index ([6]; multiple doses 150 mg): 1.1±0.5 | AUCτ,ss/dose ([6]; multiple doses 150 mg): 55.0 ± 27.1 ng·mL·h/mg | CL/F ([6]; multiple doses 150 mg): 22.3 ± 10.2 L/h | Cmax,ss/dose ([6]; multiple doses 150 mg): 4.9 ± 1.7 ng/mL/mg | fe ([6]; multiple doses 150 mg): 0.75±0.52% | Accumulation index ([6]; multiple doses 300 mg): 0.9±0.2 | AUCτ,ss/dose ([6]; multiple doses 300 mg): 22.7 ± 6.3 ng·mL·h/mg | CL/F ([6]; multiple doses 300 mg): 48.0 ± 17.6 L/h | Cmax,ss/dose ([6]; multiple doses 300 mg): 2.4 ± 0.6 ng/mL/mg | fe ([6]; multiple doses 300 mg): 0.28±0.15% | Accumulation index ([6]; multiple doses 600 mg): 0.6 and 0.6±0.1 | AUCτ,ss/dose ([6]; multiple doses 600 mg): 17.1 ± 9.5 ng·mL·h/mg | CL/F ([6]; multiple doses 600 mg): 71.9 ± 28.1 L/h | Cmax,ss/dose ([6]; multiple doses 600 mg): 1.8 ± 0.8 ng/mL/mg | fe ([6]; multiple doses 600 mg): 0.18±0.12% | AUC(0-inf) ([7]; 75 mg): 11100 ng·h/mL | AUC(0-t) ([7]; 75 mg): 8740 ng·h/mL | Cmax ([7]; 75 mg): 440 ± 68.3 ng/mL | Tmax ([7]; 75 mg): 2 h | half-life ([7]; 75 mg): 29.3 ± 12.5 h | AUC(0-inf) ([7]; 150 mg): 14100 ng·h/mL | AUC(0-t) ([7]; 150 mg): 11200 ng·h/mL | Cmax ([7]; 150 mg): 621 ± 105 ng/mL | Tmax ([7]; 150 mg): 2 h | half-life ([7]; 150 mg): 29.5 ± 11.9 h | AUC(0-inf) ([7]; 300 mg): 18100 ng·h/mL | AUC(0-t) ([7]; 300 mg): 14700 ng·h/mL | Cmax ([7]; 300 mg): 832 ± 201 ng/mL | Tmax ([7]; 300 mg): 2 h | half-life ([7]; 300 mg): 31.2 ± 21.1 h | AUC(0-inf) ([7]; 600 mg): 33700 ng·h/mL | AUC(0-t) ([7]; 600 mg): 26800 ng·h/mL | Cmax ([7]; 600 mg): 1250 ng/mL | Tmax ([7]; 600 mg): 3 h | half-life ([7]; 600 mg): 29.7 ± 15.6 h | AUC∞/dose ([7]; single dose 75 mg): 148.6 ± 64.1 ng·mL·h/mg | Cmax/dose ([7]; single dose 75 mg): 5.9 ± 0.9 ng/mL/mg | fe ([7]; single dose 75 mg): 0.94±0.64% | AUC∞/dose ([7]; single dose 150 mg): 94.3 ± 38.2 ng·mL·h/mg | CL/F ([7]; single dose 150 mg): 24.8 ± 5.6 L/h | Cmax/dose ([7]; single dose 150 mg): 4.1 ± 0.7 ng/mL/mg | fe ([7]; single dose 150 mg): 0.65±0.34% | AUC∞/dose ([7]; single dose 300 mg): 60.4 ± 30.5 ng·mL·h/mg | CL/F ([7]; single dose 300 mg): 40.3 ± 12.4 L/h | Cmax/dose ([7]; single dose 300 mg): 2.8 ± 0.7 ng/mL/mg | fe ([7]; single dose 300 mg): 0.52±0.41% | AUC∞/dose ([7]; single dose 600 mg): 56.2 ± 31.1 ng·mL·h/mg | CL/F ([7]; single dose 600 mg): 50.0 ± 21.9 L/h | Cmax/dose ([7]; single dose 600 mg): 2.1 ± 0.7 ng/mL/mg | fe ([7]; single dose 600 mg): 0.25±0.17% | dose proportionality of Cmax and AUC [8, 15]: Dose proportionality was not observed; also recorded: less than dose-proportional nonlinear pharmacokinetics | pharmacokinetic characteristics (linearity) [8, 15]: dose- and time-dependent nonlinear pharmacokinetic characteristics; also recorded: dose-and time-dependent nonlinear pharmacokinetics; also recorded: dose- and time-dependent nonlinear pharmacokinetic profiles | fe ([8]; all dose levels, unchanged drug in urine): less than 1% | CYP3A4 messenger ribonucleic acid induction [9]: CYP3A4 messenger ribonucleic acid induction | fold induction at 0.3 µM [10]: 2.3 | fold induction at 3 µM [10]: 6.2 | fold induction at 30 µM [10]: 6.2 | Gastrointestinal disorders, all AEs, number of events ([11]; multiple doses): 3 (3) | Gastrointestinal disorders, all AEs, number of subjects ([11]; multiple doses): 3 (3) | Gastrointestinal disorders, drug-related AEs, number of events ([11]; multiple doses): 3 (3) | Gastrointestinal disorders, drug-related AEs, number of subjects ([11]; multiple doses): 3 (3) | Nervous system disorders, all AEs, number of events ([11]; multiple doses): 4 (4) | Nervous system disorders, all AEs, number of subjects ([11]; multiple doses): 4 (4) | Nervous system disorders, drug-related AEs, number of events ([11]; multiple doses): 4 (4) | Nervous system disorders, drug-related AEs, number of subjects ([11]; multiple doses): 4 (4) | Oropharyngeal, respiratory, thoracic, and mediastinal disorders, all AEs, number of events ([11]; multiple doses): 13 | Oropharyngeal, respiratory, thoracic, and mediastinal disorders, all AEs, number of subjects ([11]; multiple doses): 12 | Oropharyngeal, respiratory, thoracic, and mediastinal disorders, drug-related AEs, number of events ([11]; multiple doses): 9 | Oropharyngeal, respiratory, thoracic, and mediastinal disorders, drug-related AEs, number of subjects ([11]; multiple doses): 8 | Skin and subcutaneous tissue disorders, all AEs, number of events ([11]; multiple doses): 4 | Skin and subcutaneous tissue disorders, all AEs, number of subjects ([11]; multiple doses): 3 | Skin and subcutaneous tissue disorders, drug-related AEs, number of events ([11]; multiple doses): 1 (1) | Skin and subcutaneous tissue disorders, drug-related AEs, number of subjects ([11]; multiple doses): 1 (1) | Total, drug-related AEs, number of subjects ([11]; multiple doses): 16 | epistaxis, occurrences ([11]; multiple-dose study): five | epistaxis, subjects ([11]; multiple-dose study): four | findings in in vivo safety pharmacology studies [12]: no significant findings | General disorder, all AEs, number of events [13]: 2 (2) | General disorder, all AEs, number of subjects [13]: 2 (2) | General disorder, drug-related AEs, number of events [13]: 1 (1) | General disorder, drug-related AEs, number of subjects [13]: 1 (1) | Genitourinary disorders, all AEs, number of events [13]: 1 (1) | Genitourinary disorders, all AEs, number of subjects [13]: 1 (1) | Genitourinary disorders, drug-related AEs, number of events [13]: 1 (1) | Genitourinary disorders, drug-related AEs, number of subjects [13]: 1 (1) | Musculoskeletal disorders, all AEs, number of events [13]: 2 | Musculoskeletal disorders, all AEs, number of subjects [13]: 1 | Musculoskeletal disorders, drug-related AEs, number of events [13]: 2 | Musculoskeletal disorders, drug-related AEs, number of subjects [13]: 1 | Nervous system disorders, all AEs, number of events [13]: 4 (4) | Nervous system disorders, all AEs, number of subjects [13]: 4 (4) | Nervous system disorders, drug-related AEs, number of events [13]: 3 (3) | Nervous system disorders, drug-related AEs, number of subjects [13]: 3 (3) | Ophthalmologic disorders, all AEs, number of events [13]: 1 (1) | Ophthalmologic disorders, all AEs, number of subjects [13]: 1 (1) | Oropharyngeal, respiratory, thoracic, and mediastinal disorders, all AEs, number of events [13]: 7 | Oropharyngeal, respiratory, thoracic, and mediastinal disorders, all AEs, number of subjects [13]: 6 | Oropharyngeal, respiratory, thoracic, and mediastinal disorders, drug-related AEs, number of events [13]: 2 | Oropharyngeal, respiratory, thoracic, and mediastinal disorders, drug-related AEs, number of subjects [13]: 1 | Total, all AEs, number of events [13]: 17

CCC1(c2ccccc2)C(=O)NC(=O)NC1=O [Phenobarbital, reference compound]
fold induction at 1 mM ([3]; human, probe testosterone): 9.9 | fold induction at 1 mM [10]: 8.9

O=C1Nc2ccc(Cl)cc2[C@@](C#CC2CC2)(C(F)(F)F)O1 [efavirenz]
autoinduction phenomenon [14]: autoinduction phenomenon has also been observed | dose proportionality of Cmax or AUC ([14]; single oral administration 100–1,600 mg): increased less than dose-proportionally

Cc1ccnc2c1NC(=O)c1cccnc1N2C1CC1 [nevirapine]
autoinduction phenomenon [14]: autoinduction phenomenon has also been observed | dose proportionality of Cmax or AUC ([14]; single oral administration 2.5–400 mg): increased less than dose-proportionally
